Experiment [1] can be described thus: Body weight and body composition (fat mass, lean mass, free water) of high-fat diet mice during 8 weeks of feeding intervention. The settings on record: for fat mass: FIG. 2. Type of experiment: in vivo. On the procedure: (§1) Mice were divided into groups and named after the diet they consumed. Group A mice were fed ad libitum (control), Group B mice were on high-fat diet (HFD), Group C mice were fed restricted amount of the HFD diet to achieve caloric restriction (HFD+CR), and Group D mice were fed high-fat diet and supplemented with 150 mg/kg β-aminoisobutyric acid (HFD+BAIBA). All groups of mice were housed individually, and fed for months of interventions and had free access to water. Health status was monitored during the intervention.
(§2) The four groups of mice were fed for eight weeks, body weight was measured weekly, and body fat mass, lean mass and free water mass were also measured by Body Composition Analyzer to monitor body composition every week. At the end of 8 weeks of treatment, blood was collected for each group of mice, and parameters such as total cholesterol (TCHO), triglyceride (TG), low-density lipoprotein (LDL) and high-density lipoprotein (HDL) were detected. Data were collected and subject to statistical analysis.

Experiment [2] is described as follows: Blood lipid parameters (TCHO, TG, LDL, HDL) of high-fat diet mice after 8 weeks of treatment. Type of experiment: in vivo. The settings on record: group D (HFD+BAIBA, 150 mg/kg) vs group B (HFD). The method, then:
as §1, §2

SMILES strings stand for the structures.

Consider `CC(CN)C(=O)O` (stereo not drawn) [BAIBA, β-aminoisobutyric acid], for which the fat mass result in experiment [1] (group D (HFD+BAIBA, 150 mg/kg) vs group B (HFD), 8 weeks, Body Composition Analyzer) is listed as “decreased compared to group B (HFD)”; in experiment [1] (group D (HFD+BAIBA, 150 mg/kg) vs group C (HFD+CR), from week 5 of feeding intervention), “less fat mass than group C (HFD+CR)”. Also, the free water content entry in experiment [1] (group D (HFD+BAIBA, 150 mg/kg) vs group B (HFD), 8 weeks, FIG. 4) is reported as “significantly higher than that in group B (HFD)”. In addition, the lean mass result in experiment [1] (group D (HFD+BAIBA, 150 mg/kg) vs group C (HFD+CR), by the 8th week, FIG. 3) was “significantly more than that of group C (HFD+CR)”. Moreover, the body weight result in experiment [1] (mice on high-fat diet supplemented with 150 mg/kg BAIBA (group D) vs group B (HFD), 8 weeks, measured weekly, FIG. 1) is “significantly lower than that of group B (HFD)”. Further, in experiment [2] (FIG. 5), the “total cholesterol (TCHO) level” value was “significantly lower than that of group B (HFD) and close to that of group C”. Further, the “triglyceride (TG) level” value in experiment [2] (FIG. 6) is “significantly lower than that of group B (HFD) and close to that of group C”. Besides, the “low-density lipoprotein (LDL) level” value in experiment [2] (FIG. 7) is recorded as “significantly lower than that of group B (HFD)”. For the same molecule, the “high-density lipoprotein (HDL) level” value in experiment [2] (four groups not significantly different, FIG. 8) is given as “higher HDL levles compared to group B (HFD)”.

The values are drawn from patent US20230113761A1, “METHOD AND COMPOSITION FOR MIMICKING BIOLOGICAL BENEFITS OF CALORIC RESTRICTION BY ADMINISTRATION OF B-AMINOISOBUTYRIC ACID” (NANJING NUTRABUILDING BIO-TECH CO., LTD., priority 2021, published 2023).
